# Reference: US20250270213A1, “PI3Ka INHIBITORS” (Synnovation Therapeutics, Inc., priority 2022, published 2025)
# System: T47D (PIK3CA H1047R) cells
# Test: pS473 AKT assay with 2.5% FBS, T47D cells
# Format: cell-based
# Conditions: Homo sapiens, pSer473 AKT, DMEM with 2.5% FBS, 2 h treatment, read-out: T47D_IC50
# Method in brief: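 In-cell chemiluminescent ELISA of AKT Ser473 phosphorylation, using anti-pSer473 primary and HRP secondary antibodies on fixed cells. T47D (PIK3CA H1047R) cells had 2 h of compound treatment in DMEM containing 2.5% FBS; IC50 derived from dose-response.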
row,SMILES,IC50
1,"Cc1cc(C(C)Nc2ccc(Cl)nc2-c2ccnc(N(C)C)c2)c2c(c1)c(=O)n1c3c2cnn3CCC1 (centres unmarked) [Compound 313, 10-(1-((6-chloro-2′-(dimethylamino)-[2,4′-bipyridin]-3-yl)amino)ethyl)-8-methyl-4,5-dihydro-3H,6H-2,2a,5a-triazaaceanthrylen-6-one]",< 1000 nM
2,"Cc1cc(C(C)Nc2ccc(Cl)nc2-c2ccc3c(c2)CN(C)C3=O)c2c(c1)c(=O)n1c3c2cnn3CCC1 (centres unmarked) [Compound 314, 10-(1-((6-chloro-2-(2-methyl-1-oxoisoindolin-5-yl)pyridin-3-yl)amino)ethyl)-8-methyl-4,5-dihydro-3H,6H-2,2a,5a-triazaaceanthrylen-6-one]",< 1000 nM
3,"Cc1cc(C(C)Nc2ccc(Cl)nc2-c2ccc3ncccc3c2)c2c(c1)c(=O)n1c3c2cnn3CCC1 (centres unmarked) [Compound 315, 10-(1-((6-chloro-2-(quinolin-6-yl)pyridin-3-yl)amino)ethyl)-8-methyl-4,5-dihydro-3H,6H-2,2a,5a-triazaaceanthrylen-6-one]",< 1000 nM
4,"Cc1cc(C(C)Nc2ccc(Cl)nc2-c2ccc3c(cnn3C)c2)c2c(c1)c(=O)n1c3c2cnn3CCC1 (centres unmarked) [Compound 316, 10-(1-((6-chloro-2-(1-methyl-1H-indazol-5-yl)pyridin-3-yl)amino)ethyl)-8-methyl-4,5-dihydro-3H,6H-2,2a,5a-triazaaceanthrylen-6-one]",< 1000 nM
5,"CNC(=O)c1ccc(-c2nc(C)ccc2NC(C)c2cc(C)cc3c(=O)n4c5c(cnn5CCC4)c23)cc1F (centres unmarked) [Compound 317, 2-fluoro-N-methyl-4-(6-methyl-3-((1-(8-methyl-6-oxo-4,5-dihydro-3H,6H-2,2a,5a-triazaaceanthrylen-10-yl)ethyl)amino)pyridin-2-yl)benzamide]",< 1000 nM
6,"Cc1cc(C(C)Nc2ccc(C)nc2-c2cnn(C3CCOCC3)c2)c2c(c1)c(=O)n1c3c2cnn3CCC1 (centres unmarked) [Compound 318, 8-methyl-10-(1-((6-methyl-2-(1-(tetrahydro-2H-pyran-4-yl)-1H-pyrazol-4-yl)pyridin-3-yl)amino)ethyl)-4,5-dihydro-3H,6H-2,2a,5a-triazaaceanthrylen-6-one]",< 1000 nM
7,"Cc1cc(C(C)Nc2ccc(C)nc2-c2cnn(CCO)c2)c2c(c1)c(=O)n1c3c2cnn3CCC1 (centres unmarked) [Compound 319, 10-(1-((2-(1-(2-hydroxyethyl)-1H-pyrazol-4-yl)-6-methylpyridin-3-yl)amino)ethyl)-8-methyl-4,5-dihydro-3H,6H-2,2a,5a-triazaaceanthrylen-6-one]",< 1000 nM
8,"Cc1cc(C(C)Nc2ccc(C)nc2-c2ccnc(C)c2)c2c(c1)c(=O)n1c3c2cnn3CCC1 (centres unmarked) [Compound 320, 10-(1-((2′,6-dimethyl-[2,4′-bipyridin]-3-yl)amino)ethyl)-8-methyl-4,5-dihydro-3H,6H-2,2a,5a-triazaaceanthrylen-6-one]",< 1000 nM
9,"Cc1cc(C(C)Nc2ccc(C)nc2-c2cnn(C3CC3)c2)c2c(c1)c(=O)n1c3c2cnn3CCC1 (centres unmarked) [Compound 321, 10-(1-((2-(1-cyclopropyl-1H-pyrazol-4-yl)-6-methylpyridin-3-yl)amino)ethyl)-8-methyl-4,5-dihydro-3H,6H-2,2a,5a-triazaaceanthrylen-6-one]",< 1000 nM
10,"Cc1cc(C(C)Nc2ccc(Cl)nc2N2CCN3C(=O)OCC3C2)c2c(c1)c(=O)n1c3c2cnn3CCC1 (centres unmarked) [Compound 322, 7-(6-chloro-3-((1-(8-methyl-6-oxo-4,5-dihydro-3H,6H-2,2a,5a-triazaaceanthrylen-10-yl)ethyl)amino)pyridin-2-yl)hexahydro-3H-oxazolo[3,4-a]pyrazin-3-one]",< 1000 nM
11,"Cc1cc(C(C)Nc2ccc(Cl)nc2-c2cnn3c2CN(C)CC3)c2c(c1)c(=O)n1c3c2cnn3CCC1 (centres unmarked) [Compound 323, 10-(1-((6-Chloro-2-(5-methyl-4,5,6,7-tetrahydropyrazolo[1,5-a]pyrazin-3-yl)pyridin-3-yl)amino)ethyl)-8-methyl-4,5-dihydro-3H,6H-2,2a,5a-triazaaceanthrylen-6-one]",< 1000 nM
12,"Cc1cc(C(C)Nc2ccc(Cl)nc2-c2ccc(CN(C)C)nc2)c2c(c1)c(=O)n1c3c2cnn3CCC1 (centres unmarked) [Compound 324, 10-(1-((6-Chloro-6′-((dimethylamino)methyl)-[2,3′-bipyridin]-3-yl)amino)ethyl)-8-methyl-4,5-dihydro-3H,6H-2,2a,5a-triazaaceanthrylen-6-one]",< 1000 nM
13,"Cc1cc(C(C)Nc2ccc(C)nc2-c2noc(=O)[nH]2)c2c(c1)c(=O)n1c3c2cnn3C(C)CC1 (centres unmarked) [Compound 325, 3-(3-((1-(3,8-Dimethyl-6-oxo-4,5-dihydro-3H,6H-2,2a,5a-triazaaceanthrylen-10-yl)ethyl)amino)-6-methylpyridin-2-yl)-1,2,4-oxadiazol-5(4H)-one]",< 1000 nM
14,"Cc1cc(C(C)Nc2ccc(C)nc2-c2nnn(C)n2)c2c(c1)c(=O)n1c3c2cnn3CCC1 (centres unmarked) [Compound 326, 8-Methyl-10-(1-((6-methyl-2-(2-methyl-2H-tetrazol-5-yl)pyridin-3-yl)amino)ethyl)-4,5-dihydro-3H,6H-2,2a,5a-triazaaceanthrylen-6-one]",< 1000 nM
15,"CCn1ncc2c3c(C(C)Nc4ccc(C)nc4-c4noc(=O)[nH]4)cc(C)cc3c(=O)n(C)c21 (centres unmarked) [Compound 327, 3-(3-((1-(3-Ethyl-4,7-dimethyl-5-oxo-4,5-dihydro-3H-pyrazolo[3,4-c]isoquinolin-9-yl)ethyl)amino)-6-methylpyridin-2-yl)-1,2,4-oxadiazol-5(4H)-one]",< 1000 nM
16,"Cc1cc(C(CO)Nc2ccc(Cl)nc2-c2ncn(C)n2)c2c(c1)c(=O)n1c3c2cnn3CCC1 (centres unmarked) [Compound 328, 10-(1-((6-Chloro-2-(1-methyl-1H-1,2,4-triazol-3-yl)pyridin-3-yl)amino)-2-hydroxyethyl)-8-methyl-4,5-dihydro-3H,6H-2,2a,5a-triazaaceanthrylen-6-one]",< 1000 nM
17,"Cc1cc(C(CO)Nc2ccc(Cl)nc2-c2cnn(C)c2)c2c(c1)c(=O)n1c3c2cnn3CCC1 (centres unmarked) [Compound 329, 10-(1-((6-chloro-2-(1-methyl-1H-pyrazol-4-yl)pyridin-3-yl)amino)-2-hydroxyethyl)-8-methyl-4,5-dihydro-3H,6H-2,2a,5a-triazaaceanthrylen-6-one]",< 1000 nM
18,"Cc1cc(C(CO)Nc2ccc(Cl)nc2-c2cnn(C)c2C)c2c(c1)c(=O)n1c3c2cnn3CCC1 (centres unmarked) [Compound 330, 10-(1-((6-chloro-2-(1,5-dimethyl-1H-pyrazol-4-yl)pyridin-3-yl)amino)-2-hydroxyethyl)-8-methyl-4,5-dihydro-3H,6H-2,2a,5a-triazaaceanthrylen-6-one]",< 1000 nM
19,"Cc1cc(C(CO)Nc2ccc(Cl)nc2-c2nnco2)c2c(c1)c(=O)n1c3c2cnn3CCC1 (centres unmarked) [Compound 331, 10-(1-((6-chloro-2-(1,3,4-oxadiazol-2-yl)pyridin-3-yl)amino)-2-hydroxyethyl)-8-methyl-4,5-dihydro-3H,6H-2,2a,5a-triazaaceanthrylen-6-one]",< 1000 nM
20,"Cc1cc(C(CO)Nc2ccc(Cl)nc2-c2nnn(C)n2)c2c(c1)c(=O)n1c3c2cnn3CCC1 (centres unmarked) [Compound 332, 10-(1-((6-chloro-2-(2-methyl-2H-tetrazol-5-yl)pyridin-3-yl)amino)-2-hydroxyethyl)-8-methyl-4,5-dihydro-3H,6H-2,2a5a-triazaaceanthrylen-6-one]",< 1000 nM
21,"Cc1cc(C(CO)Nc2ccc(Cl)nc2-c2ccc3c(c2)CN(C)C3=O)c2c(c1)c(=O)n1c3c2cnn3CCC1 (centres unmarked) [Compound 333, 10-(1-((6-chloro-2-(2-methyl-1-oxoisoindolin-5-yl)pyridin-3-yl)amino)-2-hydroxyethyl)-8-methyl-4,5-dihydro-3H,6H-2,2a,5a-triazaaceanthrylen-6-one]",< 1000 nM
22,"CCn1ncc2c3c(C(CN4CCN(C)CC4)Nc4ccc(Cl)nc4-c4cnn(C)c4)cc(C)cc3c(=O)n(C)c21 (centres unmarked) [Compound 334, 9-(1-((6-Chloro-2-(1-methyl-1H-pyrazol-4-yl)pyridin-3-yl)amino)-2-(4-methylpiperazin-1-yl)ethyl)-3-ethyl-4,7-dimethyl-3,4-dihydro-5H-pyrazolo[3,4-c]isoquinolin-5-one]",< 1000 nM
23,"Cc1cc(C(C)Nc2ccccc2C(=O)O)c2c(c1)c(=O)n(C)c1cncn21 (centres unmarked) [Compound I-4, 2-((1-(4,7-Dimethyl-5-oxo-4,5-dihydroimidazo[1,5-a]quinazolin-9-yl)ethyl)amino)benzoic acid]",< 1000 nM
24,"CCc1ncn2c3c(C(C)Nc4ccccc4C(=O)O)cc(C)cc3c(=O)n(C)c12 (centres unmarked) [Compound I-5, 2-((1-(3-Ethyl-4,7-dimethyl-5-oxo-4,5-dihydroimidazo[1,5-a]quinazolin-9-yl)ethyl)amino)benzoic acid]",< 1000 nM
25,"Cc1cc(C(C)Nc2ccccc2C(=O)O)c2c(c1)c(=O)n(C)c1c(-c3ccccn3)ncn21 (centres unmarked) [Compound I-6, 2-((1-(4,7-Dimethyl-5-oxo-3-(pyridin-2-yl)-4,5-dihydroimidazo[1,5-a]quinazolin-9-yl)ethyl)amino)benzoic acid]",< 1000 nM
26,"Cc1cc(C(C)Nc2ccccc2C(=O)O)c2c(c1)c(=O)n(C)c1c(C)ncn21 (centres unmarked) [Compound I-7, 2-((1-(3,4,7-Trimethyl-5-oxo-4,5-dihydroimidazo[1,5-a]quinazolin-9-yl)ethyl)amino)benzoic acid]",< 1000 nM
27,"Cc1cc(C(C)Nc2ccc(C)nc2C(=O)O)c2c(c1)c(=O)n(C)c1c(C)ncn21 (centres unmarked) [Compound I-8, 6-Methyl-3-((1-(3,4,7-trimethyl-5-oxo-4,5-dihydroimidazo[1,5-a]quinazolin-9-yl)ethyl)amino)picolinic acid]",< 1000 nM
28,"CCc1ncn2c3c(C(C)Nc4ccccc4C(=O)O)cc(Cl)cc3c(=O)n(C)c12 (centres unmarked) [Compound I-9, 2-((1-(7-Chloro-3-ethyl-4-methyl-5-oxo-4,5-dihydroimidazo[1,5-a]quinazolin-9-yl)ethyl)amino)benzoic acid]",< 1000 nM
29,"CC(Nc1ccccc1C(=O)O)c1cc(Cl)cc2c(=O)n(C)c3cncn3c12 (centres unmarked) [Compound I-10, 2-((1-(7-Chloro-4-methyl-5-oxo-4,5-dihydroimidazo[1,5-a]quinazolin-9-yl)ethyl)amino)benzoic acid]",< 1000 nM
